Assay results: patent US11407781B2, “Equatorially modified polymer linked multimers of guanosine-3′, 5′-cyclic monophosphates” (GRAYBUG VISION, INC., priority 2016, dated 2022)
Marks after values point to notes of the source that are not given here.

Tests used:
[1] = Determination of lipophilicity by RP-18 HPLC retention (log k′g); format: physicochemical; details: RP-18 reversed phase HPLC, gradient elution, ion pair chromatography with triethylammonium cation
Source text: Lipophilicity information is thus often only obtained by fragment analysis and corresponding calculations.
An established HPLC method, which is based on retention data on RP-18 reversed phase silica during gradient elution, was used for the determination of lipohilicity.
Instead of log P the method yields the descriptor log k′g, ranking analytes according to their lipophilicity on a logarithmic scale as well. Since charged molecules such as cyclic nucleotides have only hardly any retention on reversed phases, ion pair chromatography with the lipophilic triethylammonium cation is used.

[2] = test system: primary rod-like cells derived from the rd1 mutant mouse; test: Primary rod-like cells: cell death by Ethidium Homodimer assay; details: compared to Rp-8-Br-cGMPS and Rp-8-Br-PET-cGMPS; 0.1 μM and 1 μM, 24 hours (FIG. 2)
Protocol: Legend: Primary rod-like cells derived from the rd1 mutant mouse undergo spontaneous cell death 11 days after differentiation. Rod-like cells were exposed to compounds at day 10 of culture and analyzed 24 hours later. A.: 0.1 μM concentration of tested compounds. B.: 1 μM concentration of tested compounds. Percentage of dying cells was evaluated by Ethidium Homodimer assay. Untreated cells are shown as control sample (black bar). Reference compounds Rp-8-Br-cGMPS and Rp-8-Br-PET-cGMPS are shown as dashed bars. Data are shown as means±SD from at least three biological replicates.
Primary rod-like cells were obtained by isolating stem cells from the ciliary epithelium of murine eyes.^15 The cells are cultured until they form neurospheres in DMEM/F12 with FGF (20 ng/ml), Heparin (2 μg/ml), N2 (1x), Glucose (0.6%), HEPES (5 μM) and 1% Penicillin/Streptomycin. Single neurospheres are picked and plated onto glass slides coated with ECM in the same medium as before with the exception of reduced FGF concentration (10 ng/ml) to induce adhesion. […] To assess cell death, microphotographs were taken from three different slides for each compound concentration and the total number of cells, as well as the number of dying Ethidium Homodimer positive cells, were counted in each picture. […]

[3] = test system: photoreceptors of rd1 explants; test: Retinal explants: photoreceptor cell death by TUNEL stain; format: cell-based, mouse; details: 50 μM
Protocol: Legend: The animals at the age of postnatal day 5 (PN5) were killed by decapitation and retinas were dissected out with retinal pigment epithelium attached as described previously.^9 The retinas were flattened out on the membranes of commercially available 6-well culture inserts, after which 1.5 ml of a custom made culturing medium was added to each well. These explants were then kept in culture for two days without any treatment after which the test analogue of the invention at the desired concentration was added at a medium change at PN7 (“7” in Figure). There was then a new medium change at PN9 (“9” in Figure), with same concentration of analogue of the invention, upon which the cultures were kept until PN11 (“11” in Figure). At this time point the experiment was finished by a fixation procedure. This paradigm is therefore called PN5+2+4. […]
Legend: Effects of selected analogues at given concentrations of the invention on the cell death of photoreceptors of rd1 explants. The cell death was assessed by so called TUNEL stain on fixated and sectioned material, after which the number of dying cells was counted and analysed, and compared with that from untreated rd1 explants. In order to allow more direct comparisons between the different analogues and concentrations a ratio of treated/untreated specimens was calculated. […]

In the case of Nc1nc2c(ncn2[C@@H]2O[C@@H]3COP(=O)(O)O[C@H]3[C@H]2O)c(=O)[nH]1 [cGMP, guanosine-3′,5′-cyclic monophosphate, reference compound], the “log k′g” value [1] was 0.77.
With O=c1c2nc(Sc3ccc(O)cc3)n([C@@H]3O[C@@H]4COP(O)(=S)O[C@H]4[C@H]3O)c2nc2[nH]c(-c3ccccc3)cn12 (single isomer, unassigned) [Compound 34, 8-(4-Hydroxyphenylthio)-β-phenyl-1,N^2-ethenoguanosine-3′,5′-cyclic monophosphorothioate, Rp-isomer] the “log k′g” value [1] was 3.078.
For O=c1c2nc(Br)n(C3OC4COP(O)(=S)OC4C3O)c2nc2[nH]c(-c3ccsc3)cn12 (centres unmarked) [Compound 23, 8-Bromo-(3-thiophen-yl-1, N^2-etheno)guanosine-3′, 5′-cyclic monophosphorothioate], the “log k′g” value [1] was 2.746.
For O=C(CSc1nc2c(=O)n3cc(-c4ccccc4)[nH]c3nc2n1[C@@H]1O[C@@H]2COP(O)(=S)O[C@H]2[C@H]1O)NCCOCCOCCOCCOCCOCCOCCOCCOCCNC(=O)CSc1nc2c(=O)n3cc(-c4ccccc4)[nH]c3nc2n1[C@@H]1O[C@@H]2COP(O)(=S)O[C@H]2[C@H]1O (stereo partly drawn) [Compound 2, β-Phenyl-1,N^2-ethenoguanosine-3′,5′-cyclic monophosphorothioate[Rp]-[8-thiomethylamido-(octaethoxy)-ethylamidomethylthio-8]-β-phenyl-1,N^2-ethenoguanosine-3′,5′-cyclic monophosphorothioate[Rp]], the “log k′g” value [1] was 3.236* and the “protective effect against cell death in primary rod-like cells” value [2] was “significantly improved potencies to prevent cell death”.
With Nc1nc2c(ncn2[C@@H]2O[C@@H]3COP(O)(=S)O[C@H]3[C@H]2O)c(=O)[nH]1 (some centres unmarked) [A, Rp-cGMPS, reference compound] the “log k′g” value [1] was 0.894.
With Nc1nc2c(nc(SCC(=O)NCCOCCOCCOCCOCCOCCOCCOCCOCCNC(=O)CSc3nc4c(=O)[nH]c(N)nc4n3[C@@H]3O[C@@H]4COP(O)(=S)O[C@H]4[C@H]3O)n2[C@@H]2O[C@@H]3COP(O)(=S)O[C@H]3[C@H]2O)c(=O)[nH]1 (some centres unmarked) [Compound 1, Guanosine-3′,5′-cyclic monophosphorothioate[Rp]-[8-thiomethylamido-(octaethoxy)-ethylamidomethylthio-8]-guanosine-3′,5′-cyclic monophosphorothioate[Rp]] the “log k′g” value [1] was 2.039* and the “protective effect against cell death in primary rod-like cells” value [2] was “significantly improved potencies to prevent cell death”.
With Nc1nc2c(nc(Sc3ccccc3N)n2[C@@H]2O[C@@H]3CO[P@@](=O)(S)O[C@H]3[C@H]2O)c(=O)[nH]1 (single isomer, unassigned) [Compound 30, 8-(2-Aminophenylthio)guanosine-3′,5′-cyclic monophosphorothioate, Rp-isomer] the “log k′g” value [1] was 1.974.
With Nc1nc2c(nc(Br)n2[C@@H]2O[C@@H]3COP(O)(=S)O[C@H]3[C@H]2O)c(=O)[nH]1 (some centres unmarked) [B, Rp-8-Br-cGMPS, reference compound] the “log k′g” value [1] was 1.285.
For O=c1c2nc(Br)n([C@@H]3O[C@@H]4CO[P@@](O)(=S)O[C@H]4[C@H]3O)c2nc2[nH]c(-c3ccccc3)cn12 [Rp-8-Br-PET-cGMPS], the “photoreceptor cell death, ratio of treated/untreated specimens” value ([3]; PN5+2+4 paradigm, TUNEL stain, untreated = 1.0) was “about 0.78” and the “reduction of photoreceptor cell death” value ([3]; versus untreated) was “more than 20%”.
For Cc1ccc(-c2cn3c(=O)c4nc(Br)n([C@@H]5O[C@@H]6COP(O)(=S)O[C@H]6[C@H]5O)c4nc3[nH]2)cc1 (single isomer, unassigned) [Compound 22, 8-Bromo-(4-methyl-β-phenyl-1,N^2-etheno)guanosine-3′,5′-cyclic monophosphorothioate, Rp-isomer], the “log k′g” value [1] was 3.134.
In the case of Nc1nc2c(nc(SCC(=O)Nc3ccccc3)n2[C@@H]2O[C@@H]3COP(O)(=S)O[C@H]3[C@H]2O)c(=O)[nH]1 (single isomer, unassigned) [Compound 31, 8-Phenylamidomethylthioguanosine-3′,5′-cyclic monophosphorothioate, Rp-isomer], the “log k′g” value [1] was 2.105.
For O=c1c2nc(Br)n([C@@H]3O[C@@H]4CO[P@@](=O)(S)O[C@H]4[C@H]3O)c2nc2[nH]c(-c3ccc4ccccc4c3)cn12 (single isomer, unassigned) [Compound 24, 8-Bromo-(2-naphthyl-1,N^2-etheno)guanosine-3′,5′-cyclic monophosphorothioate, Rp-isomer], the “log k′g” value [1] was 3.426.
With O=c1c2nc(Br)n([C@@H]3O[C@@H]4CO[P@@](O)(=S)O[C@H]4[C@H]3O)c2nc2[nH]c(-c3ccccc3)cn12 [C, Rp-8-Br-PET-cGMPS, reference compound] the “log k′g” value [1] was 2.831.
For O=C(CSc1nc2c(=O)n3cc(-c4ccccc4)[nH]c3nc2n1[C@@H]1O[C@@H]2COP(O)(=S)O[C@H]2[C@H]1O)Nc1ccccc1 (single isomer, unassigned) [Compound 33, β-Phenyl-1,N^2-etheno-8-phenylamidomethylthioguanosine-3′,5′-cyclic monophosphorothioate, Rp-isomer], the “log k′g” value [1] was 3.411.
